Data reported in PMC5931096, “A Phase I study of the novel immunomodulatory agent PG545 (pixatimod) in subjects with advanced solid tumours” (British Journal of Cancer, 2018).

Test: Phase I dose-escalation: safety, tolerability, DLT and MTD of weekly 1-h IV infusion
Type: in vivo
Procedure: The study was an open-label, multicentre, phase 1 dose-escalation study using a 3 + 3 design. The primary objective was to determine the MTD of weekly administered PG545 via IV infusion. Secondary objectives were to characterize safety, tolerability, clinical activity, PK and PD biomarkers.
Patients continued treatment until disease progression, unacceptable toxicity or withdrawal (either voluntarily or investigator-decision).
All patients were assessed for safety, those who received at least one dose of PG545 were evaluated for efficacy. Safety assessment included the incidence of all adverse events (AEs), irrespective of relationship to study drug, according to the National Cancer Institute Common Terminology Criteria for Adverse Events, version 4.0, and the incidence of patients experiencing dose modifications and/or premature discontinuation of study drug. Dose-limiting toxicities (DLTs) used to determine the MTD were defined as occurring during Cycle 1 of treatment only and related to PG545 according to investigator assessment. If no DLT occurred in the first three subjects, the next three-subject cohort was enrolled at the next highest available dose level. If a single DLT occurred, an additional three subjects was enrolled at the same dose level. Dose escalation continued until two subjects of the cohort experienced a DLT; this was defined as the toxic dose level. The dose-escalation phase was completed and MTD determined by reducing the dose to the next lowest dose compared to the toxic dose and expanding this cohort to at least 6 subjects.

[1] = 150 mg, during or 1 h post-infusion, typical
[2] = Life threatening/Fatal, Unrelated, Safety Set

CC(C)CCC[C@@H](C)[C@H]1CC[C@H]2[C@@H]3CC[C@H]4C[C@@H](O[C@@H]5O[C@H](COS(=O)(=O)O)[C@@H](O[C@H]6O[C@H](COS(=O)(=O)O)[C@@H](O[C@H]7O[C@H](COS(=O)(=O)O)[C@@H](O[C@H]8O[C@H](COS(=O)(=O)O)[C@@H](OS(=O)(=O)O)[C@H](OS(=O)(=O)O)[C@H]8OS(=O)(=O)O)[C@H](OS(=O)(=O)O)[C@H]7OS(=O)(=O)O)[C@H](OS(=O)(=O)O)[C@H]6OS(=O)(=O)O)[C@H](OS(=O)(=O)O)[C@H]5OS(=O)(=O)O)CC[C@]4(C)[C@H]3CC[C@]12C [PG545]
0 n (%): Chills, related AE leading to discontinuation (150 mg, N = 9) | Fatigue, related severe AE (150 mg, N = 9) | Headache, treatment-related AE (150 mg, N = 9) | Hypercholesterolemia, treatment-related AE (150 mg, N = 9) | Hyperlipidaemia, related severe AE (150 mg, N = 9) | Hypovolaemia, related serious AE (150 mg, N = 9) | Injection site reaction, treatment-related AE (150 mg, N = 9) | Pyrexia, related AE leading to discontinuation (150 mg, N = 9) | Pyrexia, related serious AE (150 mg, N = 9) | Pyrexia, related severe AE (150 mg, N = 9)
200/126: Blood pressure, substantial increase in one subject, to (150 mg, one subject)
170 mm Hg: Systolic pressure during hypertension events, increase to [1]
11 (47.8%): TEAE: General disorders and administration site conditions (Mild, Related, Safety Set)
2 (22) n (%): Decreased appetite, treatment-related AE (150 mg, N = 9)
100 mm Hg: Diastolic pressure during hypertension events, increase to [1]
4 (44) n (%): Chills, treatment-related AE (150 mg, N = 9)
1 (4.3%): TEAE: Fatigue [2] | TEAE: Hyperuricaemia [2] | TEAE: Metabolism and nutritional disorders [2] | TEAE: Abdominal distension (Mild, Related, Safety Set) | TEAE: Abdominal pain lower (Mild, Related, Safety Set) | TEAE: Anaemia (Mild, Related, Safety Set) | TEAE: Asthenia (Mild, Related, Safety Set) | TEAE: Back pain (Mild, Related, Safety Set) | TEAE: Blood ALP increased (Mild, Related, Safety Set) | TEAE: Blood and lymphatic system disorders (Mild, Related, Safety Set) | TEAE: Blood cholesterol increased (Mild, Related, Safety Set) | TEAE: Blood triglycerides increased (Mild, Related, Safety Set) | TEAE: Constipation (Mild, Related, Safety Set) | TEAE: Cough (Mild, Related, Safety Set) | TEAE: Diplopia (Mild, Related, Safety Set) | TEAE: Dizziness (Mild, Related, Safety Set) | TEAE: Dysgeusia (Mild, Related, Safety Set) | TEAE: Dyspepsia (Mild, Related, Safety Set) | TEAE: Eye disorders (Mild, Related, Safety Set) | TEAE: Fall (Mild, Related, Safety Set) | TEAE: Fatigue (Mild, Related, Safety Set) | TEAE: Hypercholesterolaemia (Mild, Related, Safety Set) | TEAE: Hypovolaemia (Mild, Related, Safety Set) | TEAE: Infusion related reaction (Mild, Related, Safety Set) | TEAE: Low density lipoprotein increased (Mild, Related, Safety Set) | TEAE: Malaise (Mild, Related, Safety Set) | TEAE: Musculoskeletal pain (Mild, Related, Safety Set) | TEAE: Oxygen saturation decreased (Mild, Related, Safety Set) | TEAE: Peripheral coldness (Mild, Related, Safety Set) | TEAE: Rash (Mild, Related, Safety Set) | TEAE: Rash erythematous (Mild, Related, Safety Set) | TEAE: Respiratory, thoracic and mediastinal disorders (Mild, Related, Safety Set) | TEAE: Vascular disorders (Mild, Related, Safety Set) | TEAE: Abdominal distension (Mild, Unrelated, Safety Set) | TEAE: Abdominal pain upper (Mild, Unrelated, Safety Set) | TEAE: Ascites (Mild, Unrelated, Safety Set) | TEAE: Blood ALP increased (Mild, Unrelated, Safety Set)
4 (17.5%): TEAE: Diarrhoea (Mild, Related, Safety Set) | TEAE: Nausea (Mild, Related, Safety Set)
4 (17.4%): TEAE: Decreased appetite (Mild, Related, Safety Set)
8 (34.8%): TEAE: Gastrointestinal disorders (Mild, Related, Safety Set)
5 (56) n (%): Hypertension, related severe AE (150 mg, N = 9) | Hypertension, treatment-related AE (150 mg, N = 9) | Infusion-related reaction, treatment-related AE (150 mg, N = 9)
2 (8.7%): TEAE: Death [2] | TEAE: Chills (Mild, Related, Safety Set) | TEAE: Headache (Mild, Related, Safety Set) | TEAE: Injection site reaction (Mild, Related, Safety Set) | TEAE: Injury, poisoning and procedural complications (Mild, Related, Safety Set) | TEAE: Musculoskeletal and connective tissue disorders (Mild, Related, Safety Set) | TEAE: Skin and subcutaneous tissue disorders (Mild, Related, Safety Set) | TEAE: Abdominal pain (Mild, Unrelated, Safety Set) | TEAE: Anxiety (Mild, Unrelated, Safety Set) | TEAE: Back pain (Mild, Unrelated, Safety Set)
1 (17) n (%): Pyrexia, treatment-related AE (100 mg, N = 6)
1 (11) n (%): Acute pulmonary oedema, related AE leading to discontinuation (150 mg, N = 9) | Acute pulmonary oedema, related serious AE (150 mg, N = 9) | Acute pulmonary oedema, related severe AE (150 mg, N = 9) | Blood cholesterol increased, related severe AE (150 mg, N = 9) | Blood cholesterol increased, treatment-related AE (150 mg, N = 9) | Blood pressure increased, related severe AE (150 mg, N = 9) | Chills, related severe AE (150 mg, N = 9) | Diarrhoea, treatment-related AE (150 mg, N = 9) | Epistaxis, related AE leading to discontinuation (150 mg, N = 9) | Epistaxis, related serious AE (150 mg, N = 9) | Epistaxis, related severe AE (150 mg, N = 9) | Fatigue, treatment-related AE (150 mg, N = 9) | Hypertension, related AE leading to discontinuation (150 mg, N = 9) | Hypertension, related serious AE (150 mg, N = 9) | Infusion-related reaction, related serious AE (150 mg, N = 9) | Infusion-related reaction, related severe AE (150 mg, N = 9) | Nausea, treatment-related AE (150 mg, N = 9) | Pyrexia, treatment-related AE (150 mg, N = 9)
Three: Dose-limiting toxicities (DLTs), number (150 mg cohort, first cycle)
3 (13.0%): TEAE: GGT increased [2] | TEAE: General disorders and administration site conditions [2] | TEAE: Investigations [2] | TEAE: Investigations (Mild, Related, Safety Set) | TEAE: Nervous system disorders (Mild, Related, Safety Set)
5 (21.7%): TEAE: At least one event [2] | TEAE: Metabolism and nutritional disorders (Mild, Related, Safety Set) | TEAE: Pyrexia (Mild, Related, Safety Set)
0 (0.0%): TEAE: At least one event (Life threatening/Fatal, Related, Safety Set)
16 (70.0%): TEAE: At least one event (Mild, Related, Safety Set)
